Legend:
Type in all cases: functional
A2780 = test: Antiproliferative activity against human A2780 cells after 48 hrs by SRB assay; conditions: A2780, 48 h
WiDr = test: Antiproliferative activity against human WiDr cells after 48 hrs by SRB assay
SW1573 = test: Antiproliferative activity against human SW1573 cells after 48 hrs by SRB assay; conditions: SW1573, 48 h

| GI50 (A2780) [µM] | GI50 (SW1573) [µM] | Compound | GI50 (WiDr) [µM] | TGI (A2780) [µM] | LC50 (A2780) [µM] | TGI (SW1573) [µM] | TGI (WiDr) [µM] |
| --- | --- | --- | --- | --- | --- | --- | --- |
| > 100 | > 100 | CC(C)(C)[Si](C)(C)O[C@@H]1CCCO[C@@H]1CO | > 100 |  |  |  |  |
| 8.3 | 5.7 | O=C1C=C[C@H]2OCCC[C@H]2O1 | 39 | 35 |  |  |  |
| 86 | > 100 | C=C[C@H]1OCCC[C@H]1O[Si](C)(C)C(C)(C)C | > 100 |  |  |  |  |
| > 100 | > 100 | O=C(C[C@H]1OCCC[C@H]1O)OCc1ccccc1 | > 100 |  |  |  |  |
| > 100 | > 100 | O=C(/C=C/[C@H]1OCCC[C@H]1O)OCc1ccccc1 | > 100 |  |  |  |  |
| > 100 | > 100 | COC(=O)/C=C/[C@H]1OCCC[C@H]1O | > 100 |  |  |  |  |
| > 100 | > 100 | CC(C)(C)[Si](C)(C)O[C@@H]1CCCO[C@@H]1/C=C\CO | > 100 |  |  |  |  |
| 28 | 47 | COC(=O)/C=C/[C@H]1OCCC[C@@H]1O[Si](C)(C)C(C)(C)C | 84 |  |  |  |  |
| 32 | 37 | CC(C)(C)[Si](C)(C)O[C@@H]1CCCO[C@@H]1/C=C/C(=O)OCc1ccccc1 | 90 |  |  |  |  |
| 23 | 30 | CC(C)(C)[Si](C)(C)O[C@@H]1CCCO[C@@H]1CC(=O)OCc1ccccc1 | 19 |  |  |  |  |
| 98 | > 100 | COC(=O)/C=C/[C@H]1OCCC[C@H]1O[Si](C)(C)C(C)(C)C | > 100 |  |  |  |  |
| > 100 | > 100 | CC(C)(C)[Si](C)(C)O[C@@H]1CCCO[C@@H]1/C=C/C(=O)O | > 100 |  |  |  |  |
| > 100 | > 100 | O=C1C[C@H]2OCCC[C@H]2O1 | > 100 |  |  |  |  |
| > 100 | > 100 | CC(C)(C)[Si](C)(C)OC[C@H]1OCCC[C@H]1O[Si](C)(C)C(C)(C)C | > 100 |  |  |  |  |
| 29 | 26 | CC(C)(C)[Si](C)(C)O[C@@H]1CCCO[C@@H]1/C=C\C(=O)OCc1ccccc1 | 20 | 77 |  | 92 | 64 |

| Compound | GI50 (A2780) [µM] | GI50 (SW1573) [µM] | GI50 (WiDr) [µM] | TGI (A2780) [µM] | LC50 (A2780) [µM] | TGI (SW1573) [µM] | TGI (WiDr) [µM] |
| --- | --- | --- | --- | --- | --- | --- | --- |
| COC(=O)/C=C\[C@H]1OCCC[C@H]1O[Si](C)(C)C(C)(C)C | 7.3 | 6.3 | 38 | 39 | 86 | 68 |  |
